US20220194989A1, “SUPRAMOLECULAR POLYPEPTIDE COMPOSITIONS AND METHODS OF MAKING AND USING THE SAME” (Duke University, priority 2019, published 2022)
Read-outs that look alike come from different tables or passages of the source. Where no end group is shown, it is not given here.

Key:
[1] = test system: DC2.4 dendritic cells; assay: alamarBlue cell viability assay; conditions: 0.2-200 μM, compared to untreated cells
[2] = test system: RAW264.7 macrophages; assay: alamarBlue cell viability assay; conditions: 0.2-200 μM, compared to untreated cells
[3] = test system: mice; assay: Footpad swelling after footpad injection; conditions: single footpad injection, measured over 72 hours, compared to PBS
Protocol: (§1) (a) Footpad swelling measured 3, 6, 12, 24, 48, and 72 hours following a single footpad injection of (KEYA)20Q11 (red), Alum (dark gray), or PBS (light gray) and subtracted from baseline measurements. […] Mean+/−s.e.m. shown. n=3-5 experimental replicates per group.
(§2) Mice were injected sub-dermally on the back-right footpad with (KEYA)20Q11, Alum, or PBS to determine extent of inflammation caused by the nanomaterial (FIG. 7a). […] Footpad swelling was measured over the course of 72 hours and normalized to a pre-injection footpad thickness measurement.

[4] = test system: influenza; assay: Unpublished studies of NP-Q11 flu epitope; type: in vivo
[5] = test system: DC2.4 cells; assay: Confocal microscopy of nanofiber internalization; type: cell-based; conditions: after 24 hours
[6] = test system: local macrophages; assay: In vivo APC uptake of fluorescent nanofibers after i.p. injection; parameters: species or system mice; conditions: 2 hours
[7] = test system: Dendritic cells; assay: as above; parameters: species or system mice; conditions: 2 hours
[8] = test system: mice; assay: Multiplex cytokine analysis of lavage fluid after i.p. injection; type: in vivo; conditions: for IFNγ in lavage fluid / IL1β in lavage fluid / IL6 in lavage fluid: 2-hour i.p. stimulation, versus PBS
From the text: Immune activation is not mediated by inflammation.

[9] = test system: splenocytes; assay: Flow cytometry of splenocytes after s.c. immunization; type: in vivo, mice; conditions: spleens 5 days after last boost; for CD4+CD25hi T cells (Tregs): versus PBS
From the text: FIG. 8. […] (a) Cartoon of s.c. immunization schedule with either (KEYA)20Q11 (red), Q11 (blue), PBS (gray). Spleens were harvested at week 6. Percent of (b) CD3+ cells and (c) CD3+IL4+ cells from total number of live cells. Percent of (d) CD4+ cells and (e) CD4+IL4+ cells from total number of CD3+ cells. […] Mean+/−s.e.m. shown. n=4-5 experimental replicates per group.
Mice were immunized and boosted twice with (KEYA)20Q11, Q11, or PBS ([…]) and their spleens were harvested 5 days after the last boost. After the splenocytes were stimulated overnight with their immunizing peptide, cells were stained and taken to flow cytometry for analysis.

[10] = parameters: species or system mice; conditions: mouse, in vivo; for persistence at the injection site (average days fluorescence detected): sc
From the text: Persistence at the injection site.

[11] = cited from earlier work
[12] = test system: mice; assay: Immunization with four (KEYA)nQ11 lengths, anti-immunizing peptide IgG titers; type: in vivo
[13] = test system: lymphocytes from draining lymph nodes; assay: ELISpot on draining lymph nodes restimulated with immunizing peptide; type: in vivo, mice; conditions: for induction of antibody and T cell responses: summary of antibody and ELISpot results
[14] = Nanofiber formation (AFM, ThT binding); type: physicochemical; conditions: physiological conditions
[15] = test system: mice; assay: Immunization with Q11 nanofibers containing 1-50% (KEYA)20Q11, anti-p(KEYA)20 IgG titers; type: in vivo; conditions: 2 mM total formulation with Q11, boosted every 2.5 weeks
Protocol: FIG. 5. Titration of (KEYA)20 component modulates the strength of engagement with APCs and humoral immunity while maintaining a Type 2 T cell phenotype. Uptake of TAMRA labeled (KEYA)20Q11 in (a) DC2.4 dendritic cells, RAW264.7 macrophages, and B-LCL human B cells stimulated for 0.1, 0.5, 2, 24, and 72 (B cells only) hours measured by flow cytometry. 100% refers to the molar percent of (KEYA)20 incorporated into a 2 mM Q11 nanofiber. 10% indicates 10% (KEYA)20Q11 and 90% Q11, while 0% indicates the entire nanofiber contains only Q11. All groups included 2.5% fluorescent TAMRA-Q11. (b) Representative confocal images of fluorescent Q11 and (KEYA)20Q11 stimulated DC2.4 cells. Nanofibers seen in red, cell nuclei in blue, and cell borders in green. […] (c) Populations of mouse APCs containing nanofibers collected 12 hours after i.p. injection. (d) Cartoon indicating the boosting schedule and graph of the anti-p(KEYA)20 IgG antibody titers. 50% (KEYA)20 is represented darkest red, 33% (KEYA)20 in the second darkest, 10% (KEYA)20 in the second lightest, and 1% (KEYA)20 in the lightest color. Week 16 IgG1 and IgG2c isotypes are shown in (e), (KEYA)20 only produces an IgG1 response when at 33% and 50%. […]

[16] = test system: Lymphocyte populations purified from spleens; assay: ELISpot after immunization with (KEYA)20Q11 co-assembled with PADREQ11; type: in vivo, mice; conditions: co-assembled with 2.5% PADREQ11; 3.5 weeks
Protocol: FIG. 6. (KEYA)20Q11 can enhance the T cell stimulatory capabilities of other T and B cell epitopes. (a) ELISpot from mice immunized and boosted with nanofiber formulations containing 2.5% PADREQ11 and either 97.5% (dark red), 2.5% (light red), or 0% (gray) (KEYA)20Q11 co-assembled with Q11 into a 2 mM nanofiber. […] (b) ELISpot from mice immunized and boosted with nanofiber formulations containing 50% NPQ11 and either 50% (red), or 0% (gray) (KEYA)20Q11 co-assembled with Q11 into a 2 mM nanofiber. […] (c) Cartoon of immunization schedule for figures (d) and (e). All groups contained 50% TNFQ11 (d) anti-TNF IgG antibody titers for groups described in (c). (e) anti-TNF IgG1 and IgG2c antibodies. *p<0.05, **p<0.01, ***p<0.001 by 2way ANOVA with Sidak's post hoc test.
Enhancement of co-assembled T and B cell epitopes. Having characterized (KEYA)20Q11 and the subsequent humoral and cellular responses, the inventors tested the hypothesis that co-assembling (KEYA)20Q11 with other epitopes may enhance the response to the co-assembled epitope. Previous work has established a method for ensuring co-assembly of multiple epitopes onto a single nanofiber^38. Highlighting an advantage of the Q11 system, we were able to systematically add and titrate co-assembled (KEYA)20Q11 with a variety of T and B cell epitopes to investigate the resulting magnitude of immune responses. […]

[17] = test system: purified lymphocyte populations from spleens; assay: ELISpot after immunization with (KEYA)20Q11 co-assembled with NP-Q11; type: in vivo, mice; conditions: week 3.5
[18] = test system: mice; conditions: mouse, in vivo
Protocol: as §1, §2

[19] = mouse, in vivo
Protocol: Mice injected with TAMRA labeled Q11 on the left flank and (KEYA)20Q11 on the right were (a) measured with IVIS immediately after injection and daily for 7 days. (b) The number of days the fluorescence was detected was graphed to compare the persistence between the two groups. (c) The radiant efficiency was calculated from the images collected and graphed on a log 10 scale. (d) Total amount of remaining nanofiber and (e) overlap between nanofibers and CD45+ cells calculated from confocal images. (f) Representative confocal images from injection site skin collected on Day 7.
Persistence at the injection site. […] Uptake by APCs occurs primarily at the s.c. injection site, so we used IVIS to image mice injected with fluorescently labeled nanofibers over the course of a week. Mice were injected with Q11 on their left flank and (KEYA)20Q11 on their right (FIG. 9a) and images were taken daily to measure the retention of each nanomaterial at the injection site. […] Skin sections were taken of the injection site on day 7 and stained with CD45, a common lymphocyte marker, and DAPI, a common cell nuclei stain (FIG. 9d-f).

[20] = 12-hour i.p. stimulation, compared to PBS

## C[S+](C)[O-] [DMSO]
[1]
  cell viability (health of the dendritic cells): dose dependent cytotoxic response
[2]
  cell viability (health of the macrophages): dose dependent cytotoxic response

## Alum
[3]
  footpad swelling: significantly larger swelling

## NH2-QVYSLIRPNENPAHK SGSG QQKFQFQFEQQ-Am (H-QVYSLIRPNENPAHKSGSGQQKFQFQFEQQ-NH2; also: linked to (KEYA)20Q11) [NP-Q11]
[4]; unpublished studies
  protection against an influenza challenge: does not raise strong enough responses to be protective
[4]; unpublished work
  T cell response phenotype: IFNγ biased T cell responses

## QQKFQFQFEQQ (Synthetic- KEYA Q11) [reference compound]
[5]
  internalization seen by confocal microscopy: minimally internalized
[6]
  local macrophages with nanofiber uptake: ~100%
[7]
  dendritic cell population with nanofiber uptake: about 25%
[8]
  IFNγ in lavage fluid: indistinguishable from PBS
  IL1β in lavage fluid: indistinguishable from PBS
  IL6 in lavage fluid: indistinguishable from PBS
[9]
  CD4+CD25hi T cells (Tregs): significantly increases
[10]
  persistence at the injection site (average days fluorescence detected): 3 days
[11]; in vivo
  inflammation after injection: not inflammatory
[11]; previous reports
  humoral response: no humoral response

## SSQNSSDKPVAHVVANHQVE-SGSG-QQKFQFQFEQQ (SSQNSSDKPVAHVVANHQVESGSGQQKFQFQFEQQ; Synthetic- TNF-Q11 TNF4-23 linked to (KEYA)20Q11)
[11]; when a strong B cell response is raised
  effect on inflammation: effectively reduce inflammation

## XQQKFQFQFEQQ (not fully specified; X: randomised place (mixture)) [(KEYA)1Q11]
[12]; boosted every 2.5 weeks, 14-week experiment
  (KEYA)n-specific IgG antibodies: no humoral response
[13]
  induction of antibody and T cell responses: ineffective at inducing immune responses

## XXXXXXXXXXXXXXXXXXXXQQKFQFQFEQQ [(KEYA)20Q11]
[14]
  nanofiber formation: self-assembles into nanofibers
[12]; week 14
  Th2 response indicated by IgG1 versus IgG2c titers: strong Th2 response
[13]
  induction of antibody and T cell responses: strong antibody and T cell responses
[13]; week 14, compared with (KEYA)1Q11 or (KEYA)5Q11
  IL4 production by T cells (ELISpot): significantly higher IL4 production
[5]
  internalization seen by confocal microscopy: abundantly present
[6]
  local macrophages with nanofiber uptake: ~100%
[7]
  dendritic cell population with nanofiber uptake: about 60%
[15]
  molar concentration in nanofiber necessary to stimulate a (KEYA)20-specific IgG humoral response: ≥ 33%
[16]
  Type 2 T cell bias upon re-stimulation with p(KEYA)20: statistically higher production of IL4 than IFNγ
[17]; 50% (KEYA)20Q11 co-assembled with 50% NP-Q11 versus 0%
  T cell response to pNP: significantly enhanced
[17]; co-assembled with 50% NP-Q11
  response to re-stimulation with p(KEYA)20: strong response
[8]
  IFNγ in lavage fluid: indistinguishable from PBS
  IL1β in lavage fluid: indistinguishable from PBS
  IL6 in lavage fluid: indistinguishable from PBS
[8]; [20]
  IL4 in lavage fluid: significantly elevated
  IL5 in lavage fluid: significantly elevated
[9]
  CD4+ T cells: slight reduction
  general proliferation of T cells (total percent of CD3+ cells): no effect
  percent of IL4+ CD3+ cells: significantly higher percent
  percent of IL4+ CD4+ T cells: increase
  CD4+CD25hi T cells (Tregs): increases the production of Tregs
[10]
  amount retained at the site by radiant efficiency: greater amounts
  persists at the injection site and maintains immunogenicity: up to 7 days
  persistence at the injection site (average days fluorescence detected): 5 days
[18]
  footpad swelling: no distinguishable swelling
[19]
  capsule formation around the injected material: little to no capsule formation
